Source: US7332480B2, “Compositions for the regulation of cytokine activity” (Yeda Research and Development Co. Ltd., priority 1992, dated 2008)

Legend:
adjuvant arthritis = experiment: Adjuvant arthritis (AA) in rats; format: in vivo, Lewis rats
IDDM of NOD mice = experiment: Insulin dependent diabetes mellitus (IDDM) of NOD mice; format: in vivo; conditions: H-9392 30 ng, glucosamine 10,000 ng; all the control mice had died (FIG. 41A)
[1] = tested on: secretion of active TNF-α by activated human CD4+ T cells; experiment: Bioassay of TNF-α activity using human CD4+ T cells derived from PBLs (human PBL bioassay); format: cell-based; conditions: Table XXIII; conc range of 1 μg/ml-0.01 pg/ml; inconsistent = same result not obtained for all three bioassays
Source text: Non adherent cells were eluted and washed.
Nophar, Y. et al. J. Immunol. (1988) 140 (10):3456-3460.

[2] = tested on: mortality after irradiation; experiment: Radioprotective effects in gamma-irradiated mice; format: in vivo, BALB/c mice; conditions: 750 rads, three administrations
Procedure: Groups of female BALB/c mice, 8 weeks old, 5-10 mice per group, were injected subcutaneously with either saline (0.1 ml, control), H-9392 (30 ng/mouse), or glucosamine (10,000 ng/mouse) 1 day before irradiation, and weekly thereafter until termination of the experiment on day 30. All the mice were irradiated to a dose of 700 rads using a ^60Co gamma radiation source.
The mortality within the different groups of mice was then scored over a 30 day period. […] The group of mice which had been injected with glucosamine also fared better than the control group, showing a 20% mortality rate in the same period.
In a separate experiment, groups of BALB/c mice (5 mice to a group) were likewise exposed to 750 rads of gamma-rays, except that these groups of mice were treated with test substances (saline at 0.1 ml per mouse; H-9392 at 0.3, 3, 30 and 300 ng/mouse; and glucosamine at 1, 10 and 100 μg/mouse) on the day before irradiation, on the sixth day after irradiation, and once again on the thirteenth day after irradiation only. All treatment ceased after the third and last administration.

skin graft rejection = experiment: Skin allograft rejection in mice; format: in vivo, BALB/c mice; conditions: 300 ng/mouse s.c. one day before grafting and weekly thereafter
Procedure: The effect of H-9392 was also tested in skin graft rejection experiments in mice. In particular, skin grafts from C57BL/6 donor mice (H-2^b) were applied to recipient BALB/c mice (H-2^d) according to the method of Baharav, E. et al. J. Immunol. Methods (1986) 90:143-144. The number of days to rejection was measured by the sloughing of the graft. The number of days to rejection was determined for a control group (injected with saline only, 0.1 ml), and test groups that received 3 ng or 300 ng of H-9392 by subcutaneous injection one day before grafting and weekly thereafter. The results, which are graphically represented in FIGS. 40 and 40A, reveal that the 3 ng/mouse dose delayed the level of skin graft rejection at 50% by 5 days!

[3] = tested on: experimental allergic asthma; experiment: Experimental allergic bronchial asthma in rats; format: in vivo, Brown Norway rats; conditions: 30 ng s.c. on day 30, challenge on day 35; saline animals Grade 3 or 4
Procedure: Experimental allergic bronchial asthma is an immediate type hypersensitivity reaction in rats which have been immunized and then rechallenged by inhalation of the priming antigen in a aerosolized solution. (Edelman, et al., Am. Rev. Resp. Dis. (1988) 137:1033-37). The etiology and pathophysiology of this experimental disease closely parallel the naturally occurring human counterpart. […] V.), on day zero. Subsequent challenges consisted of a 5 minute period of inhalation of OVA (1 mg/ml solution) aerosolized in a Devilbiss Nebulizer operated at an airflow of 6 L/min. Respiratory Distress (RD) responses were scored as Grade 0, no signs of distress; Grade 1, tachypnea; Grade 2, moderate labored breathing; Grade 3 severe labored breathing with mouth open; Grade 4, loss of consciousness and muscular tone. Sixteen days following primary immunization all animals were exposed to an initial aerosolized challenge to establish the positive control. The animals were coded so that the observer was ignorant of the subject animal's history. […] On day thirty, the animals were divided into 2 groups and given either saline (control Group A) or 30 ng of substance H-9392, s.c., (Group B) and challenged on day 35 as above.

O=C(O)C1=C[C@H](O)[C@@H](OS(=O)(=O)O)[C@H](O[C@H]2[C@H](O)[C@@H](NS(=O)(=O)O)C(O)O[C@@H]2CO)O1 (stereo partly drawn) [H-9392, 2-O-Sulfate-4-deoxy-4-en-iduronic acid-(α-1,4)-2-deoxy-2-N-sulfateglucosamine]
course of AA after treatment was ended (adjuvant arthritis; treatment from day 12, dexamethasone phosphate daily or weekly, disaccharide weekly): continued to exhibit improved AA scores
effect on severity of AA (adjuvant arthritis; weekly or daily, beginning at day 0 or at day 12 (FIGS. 38D, 38E)): positive suppression of the severity of AA in all cases
severity of the AA score at 30 days post-induction (adjuvant arthritis; weekly s.c. from day 12, dexamethasone phosphate 100 μg or disaccharide 120 ng per rat (FIG. 38G)): almost complete suppression
mice died by age 5 months (IDDM of NOD mice): none
Bioassay of TNF Activity [1]: Inconsistent
mice died by the thirtieth day after irradiation ([2]; 30 ng/mouse, 5 mice to a group): one
activity in suppressing mortality after irradiation ([2]; 300 ng H-9392, 1 μg glucosamine): moderate activity
difference at 50% rejection relative to control (skin graft rejection): failed to produce a significant difference
respiratory distress after secondary challenge [3]: mere tachypnea
